Experiments:
MKP5(h) = target: T1, MKP5(h) (Homo sapiens, UniProt Q9Y6W6); experiment: Phosphatase screen; format: biochemical; details: 0.1% DMSO control = 100%
T1 construct: purchased Millipore (KinaseProfiler service)

HePTP(h) = target: T2, HePTP(h) (Homo sapiens, UniProt P35236); experiment: Phosphatase screen; format: biochemical; details: 0.1% DMSO control = 100%
T2 construct: purchased Millipore (KinaseProfiler service)

VHR(h) = target: T3, VHR(h) (Homo sapiens, UniProt P51452); experiment: Phosphatase screen; format: biochemical; details: 0.1% DMSO control = 100%
T3 construct: purchased Millipore (KinaseProfiler service)

CDK1/cyclinB(h) = target: T4, CDK1/cyclinB(h) (Homo sapiens, UniProt P06493); experiment: Kinase screen; format: biochemical; details: 0.1% DMSO control = 100%
T4 construct: purchased Millipore (KinaseProfiler service)

p70S6K(h) = target: T5, p70S6K(h) (Homo sapiens, UniProt P23443); experiment: Kinase screen; format: biochemical; details: 0.1% DMSO control = 100%
T5 construct: purchased Millipore (KinaseProfiler service)

PRAK(h) = target: T6, PRAK(h) (Homo sapiens, UniProt Q8IW41); experiment: Kinase screen; format: biochemical; details: 0.1% DMSO control = 100%
T6 construct: purchased Millipore (KinaseProfiler service)

[1] = system: SW480 colon carcinoma cells; experiment: MTS cell proliferation assay, Table 5; format: cell-based; details: Homo sapiens; SW480, 10 μM, 72 h; relative to DMSO control; read-out: Cell proliferation (%) for test compounds
Method in brief: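 SW480 cells treated with 10 μM compound (0.1% DMSO vehicle) in 10% FBS medium, refreshed daily, for 72 h. MTS reduction read at A490 after 2 h substrate incubation; values are t0-corrected growth as percent of DMSO control.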

CK1γ1(h) = target: T7, CK1γ1(h) (Homo sapiens, UniProt Q9HCP0); experiment: Kinase screen; format: biochemical; details: 0.1% DMSO control = 100%
T7 construct: purchased Millipore (KinaseProfiler service)

PKG1α(h) = target: T8, PKG1α(h) (Homo sapiens, UniProt Q13976); experiment: Kinase screen; format: biochemical; details: 0.1% DMSO control = 100%
T8 construct: purchased Millipore (KinaseProfiler service)

Rse(h) = target: T9, Rse(h) (Homo sapiens, UniProt Q06418); experiment: Kinase screen; format: biochemical; details: 0.1% DMSO control = 100%
T9 construct: purchased Millipore (KinaseProfiler service)

TNF-α pathway = experiment: NF-κB-Luciferase reporter in HEK293 cells with rTNF-α; format: cell-based; details: 1 or 10 μM, 24 h, 10 ng/ml rTNF-α
Source text: 2) HEK293 cells transiently transfected with a NF-κB-Luciferase reporter (NF-κB-Luc—purchased from Promega).

PTP MEG1(h) = target: T10, PTP MEG1(h) (Homo sapiens, UniProt P29074); experiment: Phosphatase screen; format: biochemical; details: 0.1% DMSO control = 100%
T10 construct: purchased Millipore (KinaseProfiler service)

Xenopus embryos = experiment: Xenopus laevis axis duplication assay (XWnt8 mRNA); format: in vivo; details: 0.4 pmol injected, scored after 36 h; compared to DMSO controls
Experimental: Injection of ectopic XWnt8 mRNA into the prospective ventral side activates canonical Wnt pathway signaling and induces a secondary body axis. This assay provides a reliable method to test biological effects of compounds with potential effects on Wnt signaling. […] The embryos were incubated at 19° C. and axis duplication was scored after 36 hours.

MAPK2(h) = target: T11, MAPK2(h) (Homo sapiens, UniProt P28482); experiment: Kinase screen; format: biochemical; details: 0.1% DMSO control = 100%
T11 construct: purchased Millipore (KinaseProfiler service)

Aurora-A(h) = target: T12, Aurora-A(h) (Homo sapiens, UniProt O14965); experiment: Kinase screen; format: biochemical; details: 0.1% DMSO control = 100%
T12 construct: purchased Millipore (KinaseProfiler service)

SW480 colorectal cells = experiment: SW480 xenograft in CB17/SCID mice; format: in vivo
Experimental: SW480 colorectal cells were injected subcutaneously into CB17/SCID mice and palpable tumors were detected within 7 days in 50% of the mice. Randomized groups of mice were injected (i.p.) daily with compound No. 1 at doses of […] or 30 mg/kg (delivered daily for five days followed by a 2-day pause) at termination, plasma was collected and tumors were isolated and weighed. 40 female […] (Taconic) were injected subcutaneously (s.c.) at the right posterior flank with 10^7 SW480 cells diluted in 100 μl PBS. Injections were initiated when tumor formation was visible in 50% of the animals (7 days). Mice were randomized and divided into three treatment groups: 150 mg/kg compound No. 1, 300 mg/kg compound No. 1 and vehicle control 1% Tween® 80 (Sigma). Daily injections (200 μl, i.p.) followed (two day injection intermissions after every fifth injection day) until experiment end (29 days). At the termination day, 24 hours after the last injection, blood was collected after cardiac puncture and the tumors were removed and weighed. The compound concentration in plasma and tumors was determined using an on-line and off-line Solid Phase Extraction-Capillary Liquid Chromatography ([…]) instrumentation coupled to a Time of Flight (TOF) mass spectrometer, as previously described (Wilson, S. R. et al., J. Sep. Sci. 28: 1751-1758, 2005). A Zorbax SB C18 5 μm 150×0.3 mm column (Agilent, […], Calif., USA) was used for separation, and a Knauer K-2600 UV detector was used as a complimentary detector. RNA was isolated from representative groups of tumors (n=5) and analysed by real-time RT-PCR as described in Example 25 for expression of Sp5. Results were calculated as the ratio of expression of Sp5 to a control gene (hGUSB). As described in standard protocols, immunostaining was performed with rabbit polyclonal smooth muscle actin (Abcam) and monoclonal β-catenin (BD Transduction LaboratoriesTM), both diluted 1:1000. Secondary antibodies used were 1:500 diluted Alexa Fluor® 594 goat anti-rabbit antibody and Alexa Fluor® 488 goat anti-mouse antibody. The sections were imaged by a Zeiss Axiovert 200M Fluorescence/Live cell Imaging Microscope with X^40 magnification and the same exposure times.

IGF-1R(h) = target: T13, IGF-1R(h) (Homo sapiens, UniProt P08069); experiment: Kinase screen; format: biochemical; details: 0.1% DMSO control = 100%
T13 construct: purchased Millipore (KinaseProfiler service)
T13 sequence (P08069 31-1367): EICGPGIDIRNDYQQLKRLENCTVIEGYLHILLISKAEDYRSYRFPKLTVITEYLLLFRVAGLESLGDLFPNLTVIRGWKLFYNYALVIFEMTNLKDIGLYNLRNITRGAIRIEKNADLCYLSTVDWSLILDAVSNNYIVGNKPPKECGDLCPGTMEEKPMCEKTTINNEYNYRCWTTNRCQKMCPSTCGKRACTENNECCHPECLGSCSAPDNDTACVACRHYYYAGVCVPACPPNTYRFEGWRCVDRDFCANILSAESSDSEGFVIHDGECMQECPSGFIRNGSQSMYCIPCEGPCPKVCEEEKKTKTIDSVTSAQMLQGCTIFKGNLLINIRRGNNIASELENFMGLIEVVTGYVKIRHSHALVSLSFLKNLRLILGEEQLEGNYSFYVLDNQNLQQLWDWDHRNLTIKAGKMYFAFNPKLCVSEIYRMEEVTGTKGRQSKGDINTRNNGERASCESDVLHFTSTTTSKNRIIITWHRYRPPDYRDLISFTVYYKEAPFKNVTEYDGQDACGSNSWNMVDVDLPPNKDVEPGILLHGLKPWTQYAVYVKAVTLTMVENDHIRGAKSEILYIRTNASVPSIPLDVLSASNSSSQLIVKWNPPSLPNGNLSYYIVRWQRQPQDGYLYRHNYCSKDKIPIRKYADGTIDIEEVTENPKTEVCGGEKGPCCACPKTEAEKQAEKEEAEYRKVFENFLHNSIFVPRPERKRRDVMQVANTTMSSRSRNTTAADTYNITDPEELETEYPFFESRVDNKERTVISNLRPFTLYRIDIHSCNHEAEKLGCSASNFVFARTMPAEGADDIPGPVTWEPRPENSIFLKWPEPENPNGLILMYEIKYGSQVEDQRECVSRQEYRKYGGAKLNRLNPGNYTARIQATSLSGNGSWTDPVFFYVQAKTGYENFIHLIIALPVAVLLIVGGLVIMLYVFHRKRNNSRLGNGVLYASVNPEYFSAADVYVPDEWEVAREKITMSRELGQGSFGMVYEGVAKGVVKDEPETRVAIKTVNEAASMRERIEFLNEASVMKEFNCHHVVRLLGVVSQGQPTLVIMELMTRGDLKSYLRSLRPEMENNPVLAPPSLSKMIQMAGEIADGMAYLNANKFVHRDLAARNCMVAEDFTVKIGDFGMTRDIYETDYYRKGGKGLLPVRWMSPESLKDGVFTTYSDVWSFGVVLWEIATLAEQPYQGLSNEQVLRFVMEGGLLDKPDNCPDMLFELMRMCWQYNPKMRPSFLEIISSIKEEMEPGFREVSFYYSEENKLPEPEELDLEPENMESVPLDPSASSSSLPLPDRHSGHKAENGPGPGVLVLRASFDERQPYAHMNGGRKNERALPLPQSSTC

T2 sequence (P35236 whole entry): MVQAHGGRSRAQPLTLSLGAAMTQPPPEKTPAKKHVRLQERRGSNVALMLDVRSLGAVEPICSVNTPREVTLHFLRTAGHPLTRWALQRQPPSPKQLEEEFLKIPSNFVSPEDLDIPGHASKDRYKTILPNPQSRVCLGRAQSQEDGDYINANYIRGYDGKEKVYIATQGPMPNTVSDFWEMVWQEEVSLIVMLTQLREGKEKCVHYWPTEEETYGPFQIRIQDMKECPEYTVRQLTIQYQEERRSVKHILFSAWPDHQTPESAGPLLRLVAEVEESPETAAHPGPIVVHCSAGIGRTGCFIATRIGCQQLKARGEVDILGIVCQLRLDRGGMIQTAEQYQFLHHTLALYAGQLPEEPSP
T7 sequence (Q9HCP0 whole entry): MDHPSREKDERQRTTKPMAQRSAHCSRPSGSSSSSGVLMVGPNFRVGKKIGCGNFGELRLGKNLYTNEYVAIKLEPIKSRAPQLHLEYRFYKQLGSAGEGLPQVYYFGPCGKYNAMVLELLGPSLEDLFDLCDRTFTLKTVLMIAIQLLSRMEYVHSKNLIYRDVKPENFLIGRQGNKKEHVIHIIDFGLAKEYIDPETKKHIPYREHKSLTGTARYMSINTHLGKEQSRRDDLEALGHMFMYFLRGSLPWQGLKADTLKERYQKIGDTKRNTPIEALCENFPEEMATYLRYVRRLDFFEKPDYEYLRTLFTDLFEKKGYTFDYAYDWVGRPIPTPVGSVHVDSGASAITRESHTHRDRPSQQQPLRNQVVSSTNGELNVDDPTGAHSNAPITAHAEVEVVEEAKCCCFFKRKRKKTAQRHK
T10 sequence (P29074 whole entry): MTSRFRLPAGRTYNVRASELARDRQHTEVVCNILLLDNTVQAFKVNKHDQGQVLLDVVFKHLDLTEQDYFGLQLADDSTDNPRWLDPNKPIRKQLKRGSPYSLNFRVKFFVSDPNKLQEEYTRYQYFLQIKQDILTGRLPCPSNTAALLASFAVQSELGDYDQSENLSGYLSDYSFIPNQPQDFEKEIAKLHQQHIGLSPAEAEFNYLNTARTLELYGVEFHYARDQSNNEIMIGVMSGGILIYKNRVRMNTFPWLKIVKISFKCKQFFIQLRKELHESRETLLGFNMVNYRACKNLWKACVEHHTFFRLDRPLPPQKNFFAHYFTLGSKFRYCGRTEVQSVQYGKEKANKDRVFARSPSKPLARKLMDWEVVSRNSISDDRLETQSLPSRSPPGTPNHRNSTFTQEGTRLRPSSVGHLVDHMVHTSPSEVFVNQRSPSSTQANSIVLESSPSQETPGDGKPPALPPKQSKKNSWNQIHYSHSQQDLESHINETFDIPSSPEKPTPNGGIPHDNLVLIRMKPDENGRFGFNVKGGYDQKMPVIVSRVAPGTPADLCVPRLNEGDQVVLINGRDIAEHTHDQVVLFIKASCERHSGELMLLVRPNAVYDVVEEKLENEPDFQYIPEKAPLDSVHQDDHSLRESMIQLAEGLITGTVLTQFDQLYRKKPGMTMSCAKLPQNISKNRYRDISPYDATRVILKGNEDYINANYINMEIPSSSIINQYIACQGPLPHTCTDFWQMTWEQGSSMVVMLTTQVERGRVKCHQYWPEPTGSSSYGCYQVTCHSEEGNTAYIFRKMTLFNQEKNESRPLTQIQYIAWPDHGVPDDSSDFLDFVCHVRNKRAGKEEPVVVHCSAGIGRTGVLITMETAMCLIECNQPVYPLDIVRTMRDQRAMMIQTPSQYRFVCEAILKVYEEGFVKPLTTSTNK
T5 sequence (P23443 whole entry): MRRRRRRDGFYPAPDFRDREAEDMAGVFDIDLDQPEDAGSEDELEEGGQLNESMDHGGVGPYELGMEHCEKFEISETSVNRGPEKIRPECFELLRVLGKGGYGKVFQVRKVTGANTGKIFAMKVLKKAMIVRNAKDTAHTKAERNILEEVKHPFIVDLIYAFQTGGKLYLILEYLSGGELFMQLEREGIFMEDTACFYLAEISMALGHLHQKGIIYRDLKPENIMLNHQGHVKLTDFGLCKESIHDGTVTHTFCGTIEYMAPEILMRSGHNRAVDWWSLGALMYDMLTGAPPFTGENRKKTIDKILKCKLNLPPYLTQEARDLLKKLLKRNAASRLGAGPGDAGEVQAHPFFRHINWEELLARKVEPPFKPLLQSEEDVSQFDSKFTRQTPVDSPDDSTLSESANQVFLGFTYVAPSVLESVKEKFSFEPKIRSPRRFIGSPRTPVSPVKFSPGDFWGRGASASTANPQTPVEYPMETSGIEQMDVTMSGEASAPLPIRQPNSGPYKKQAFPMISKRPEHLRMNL
T4 sequence (P06493 whole entry): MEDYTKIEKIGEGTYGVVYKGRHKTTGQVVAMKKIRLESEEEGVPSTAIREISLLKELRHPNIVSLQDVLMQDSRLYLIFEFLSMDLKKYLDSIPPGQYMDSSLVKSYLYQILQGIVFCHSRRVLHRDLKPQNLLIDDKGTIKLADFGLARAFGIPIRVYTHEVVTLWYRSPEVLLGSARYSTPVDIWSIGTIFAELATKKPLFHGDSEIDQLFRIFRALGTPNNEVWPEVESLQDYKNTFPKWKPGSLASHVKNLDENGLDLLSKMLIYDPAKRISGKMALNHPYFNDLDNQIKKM
T4 sequence (P14635 whole entry partner): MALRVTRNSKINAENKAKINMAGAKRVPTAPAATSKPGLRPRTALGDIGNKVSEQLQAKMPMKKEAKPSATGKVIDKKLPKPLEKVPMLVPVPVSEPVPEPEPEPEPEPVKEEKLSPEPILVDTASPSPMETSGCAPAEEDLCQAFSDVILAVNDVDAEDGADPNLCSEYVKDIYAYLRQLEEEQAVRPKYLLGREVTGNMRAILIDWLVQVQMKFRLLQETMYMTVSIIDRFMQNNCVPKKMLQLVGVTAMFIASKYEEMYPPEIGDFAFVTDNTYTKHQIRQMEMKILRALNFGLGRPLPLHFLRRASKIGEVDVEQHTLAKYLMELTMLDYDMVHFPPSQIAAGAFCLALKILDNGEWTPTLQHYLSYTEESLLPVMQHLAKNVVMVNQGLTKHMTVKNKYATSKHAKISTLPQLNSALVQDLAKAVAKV
T8 sequence (Q13976 whole entry): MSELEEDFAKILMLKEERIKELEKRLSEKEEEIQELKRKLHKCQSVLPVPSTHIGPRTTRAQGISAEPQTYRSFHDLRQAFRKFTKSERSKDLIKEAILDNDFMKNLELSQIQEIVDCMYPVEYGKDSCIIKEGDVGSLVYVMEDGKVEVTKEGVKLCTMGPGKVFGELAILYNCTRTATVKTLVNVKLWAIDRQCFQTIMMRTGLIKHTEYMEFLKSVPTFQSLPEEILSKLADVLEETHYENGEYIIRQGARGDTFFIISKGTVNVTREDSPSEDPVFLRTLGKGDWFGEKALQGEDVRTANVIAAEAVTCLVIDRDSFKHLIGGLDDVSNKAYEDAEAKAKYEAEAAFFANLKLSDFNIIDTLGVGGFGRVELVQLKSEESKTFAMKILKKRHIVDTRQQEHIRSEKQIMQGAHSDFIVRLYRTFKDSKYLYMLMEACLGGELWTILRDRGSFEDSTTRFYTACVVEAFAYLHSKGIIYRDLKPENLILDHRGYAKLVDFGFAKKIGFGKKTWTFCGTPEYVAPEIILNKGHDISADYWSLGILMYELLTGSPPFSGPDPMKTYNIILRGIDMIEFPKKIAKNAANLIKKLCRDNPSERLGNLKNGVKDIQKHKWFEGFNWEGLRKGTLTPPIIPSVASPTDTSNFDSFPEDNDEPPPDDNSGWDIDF

Structure (SMILES): COc1ccc(-n2c(SCc3nc(-c4ccc(C)cc4)no3)nnc2-c2ccncc2)cc1 [Compound 1]
- activity at 10 µM (MKP5(h)): 99%
- activity at 10 µM (HePTP(h)): 106%
- activity at 10 µM (VHR(h)): 103%
- activity at 10 µM (CDK1/cyclinB(h)): 101%
- activity at 10 µM (p70S6K(h)): 113%
- activity at 10 µM (PRAK(h)): 55%
- activity at 10 µM [1]: 52%
- activity at 10 µM (CK1γ1(h)): 100%
- activity at 10 µM (PKG1α(h)): 106%
- activity at 10 µM (Rse(h)): 108%
- effect against the TNF-α pathway (TNF-α pathway): no substantial activating or inhibitory effect
- activity at 10 µM (PTP MEG1(h)): 92%
- reduction in double axis formation (Xenopus embryos): 87%
- activity at 10 µM (MAPK2(h)): 105%
- activity at 10 µM (Aurora-A(h)): 95%
- reduction in tumor size, on average (SW480 colorectal cells; 150 mg/kg i.p. daily (5 days on, 2 off), 29 days): 33%
- reduction in tumor size, on average (SW480 colorectal cells; 300 mg/kg i.p. daily (5 days on, 2 off), 29 days): 35%
- adverse side effects, such as weight loss, during treatment (SW480 colorectal cells; 150 or 300 mg/kg i.p., 29 days): No obvious adverse side effects
- SP5 mRNA in tumors (real-time RT-PCR, relative to hGUSB) (SW480 colorectal cells; both 150 mg/kg and 300 mg/kg doses): down-regulated
- activity at 10 µM (IGF-1R(h)): 149%
